# Reference: ChEMBL document CHEMBL5726188, “Triazolo[4,5-D]pyrimidines” (2019)
# pEC50: −log10 of the molar value.
# Assays:
# Cannabinoid receptor 1 = Cannabinoid receptor 1 (Homo sapiens, UniProt P21554); test: (§1) cAMP Assay: CHO cells expressing human CB1 or CB2 receptors are seeded 17-24 hours prior to the experiment 50.000 cells per well in a black 96 well plate with flat clear bottom (Corning Costar #3904) in DMEM (Invitrogen No. 31331), 1×HT supplement, with 10% fetal calf serum and incubated at 5% CO2 and 37° C. in a humidified incubator. The growth medium was exchanged with Krebs Ringer Bicarbonate buffer with 1 mM IBMX and incubated at 30° C. for 30 min. Compounds were added to a final assay volume of 100 μl and incubated for 30 min at 30° C. Using the cAMP-Nano-TRF detection kit the assay (Roche Diagnostics) was stopped by the addition of 50 μl lysis reagent (Tris, NaCl, 1.5% Triton X100, 2.5% NP40, 10% NaN3) and 50 μl detection solutions (20 μM mAb Alexa700-cAMP 1:1, and 48 μM Ruthenium-2-AHA-cAMP) and shaken for 2 h at room temperature. The time-resolved energy transfer is measured by a TRF reader (Evotec Technologies GmbH), equipped with a ND:YAG laser as excitation source. The plate is measured twice with the excitation at 355 nm and at the emission with a delay of 100 ns and a gate of 100 ns, total exposure time 10 s at 730 (bandwidth 30 nm) or 645 nm (bandwidth 75 nm), respectively.
# Cannabinoid receptor 1, sequence (P21554 whole entry): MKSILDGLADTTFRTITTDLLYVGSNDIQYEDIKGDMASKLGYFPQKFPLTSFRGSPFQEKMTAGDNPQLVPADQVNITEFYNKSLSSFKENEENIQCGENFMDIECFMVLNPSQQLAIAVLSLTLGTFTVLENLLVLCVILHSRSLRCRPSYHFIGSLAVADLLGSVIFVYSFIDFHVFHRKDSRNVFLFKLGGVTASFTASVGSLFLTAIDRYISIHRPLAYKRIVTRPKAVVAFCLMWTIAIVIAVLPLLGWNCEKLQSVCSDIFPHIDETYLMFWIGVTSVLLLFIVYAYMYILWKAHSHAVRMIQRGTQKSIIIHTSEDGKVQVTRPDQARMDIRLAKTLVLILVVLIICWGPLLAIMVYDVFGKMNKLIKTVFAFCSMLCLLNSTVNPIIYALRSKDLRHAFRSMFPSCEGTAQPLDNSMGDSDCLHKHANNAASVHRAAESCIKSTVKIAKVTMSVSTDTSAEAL
# Cannabinoid receptor 2 = Cannabinoid receptor 2 (Homo sapiens, UniProt P34972); test: as §1
# Cannabinoid receptor 2, sequence (P34972 whole entry): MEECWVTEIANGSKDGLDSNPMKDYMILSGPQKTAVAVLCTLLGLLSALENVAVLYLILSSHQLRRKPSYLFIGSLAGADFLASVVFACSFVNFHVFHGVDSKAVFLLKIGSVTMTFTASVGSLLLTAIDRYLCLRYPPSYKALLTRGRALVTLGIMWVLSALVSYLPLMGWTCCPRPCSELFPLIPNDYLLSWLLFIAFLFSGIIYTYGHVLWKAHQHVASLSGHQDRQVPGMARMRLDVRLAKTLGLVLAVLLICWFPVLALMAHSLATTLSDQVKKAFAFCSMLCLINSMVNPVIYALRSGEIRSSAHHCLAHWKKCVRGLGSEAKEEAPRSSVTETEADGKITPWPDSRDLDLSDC
Compound,pEC50 (Cannabinoid receptor 1),pEC50 (Cannabinoid receptor 2)
Cn1nccc1-c1nc(C(C)(C)C)nc2c1nnn2CCC(F)(F)F,< 5.00,6.88
Cc1nonc1Cn1nnc2c(-c3ccc(F)nc3)nc(C(C)(C)C)nc21,< 5.00,6.19
